Measured values: US12389911B2, “Benzimidazole compound or salt thereof, agricultural and horticultural insecticidal and acaricidal agent containing said compound, and method for using same” (NIHON NOHYAKU CO., LTD., priority 2019, dated 2025)

Tested on: Two-spotted spider mite (Tetranychus urticae)
Assay: Acaricidal action on two-spotted spider mite (kidney bean leaf disk spray)
Format: in vivo
Conditions: 500 ppm, adult females, 25° C., two days after treatment
Procedure: Acaricidal Action on Two-Spotted Spider Mite (Tetranychus urticae)
Leaf disk having a diameter of 2 cm was prepared by leaves of kidney bean, and the leaf disk was placed on the wetted filter paper. Adult hens of two-spotted spider mite were inoculated on the wetted filter paper, and then 50 ml of an agrochemical dispersion, prepared by diluting a formulation containing the benzimidazole compound represented by the general formula (1) of the present invention or salt thereof as an active ingredient to adjust each of the concentrations to 500 ppm, was sprayed on turntable uniformly. After the spraying, it was allowed to stand in a thermostatic chamber at 25° C. Two days after the treatment of an agrochemical dispersion, the dead mites were counted, the corrected mortality rate was calculated according to the formula shown below, and the acaricidal efficacy was evaluated according to the criteria of Test Example 2. This test was conducted in duplicate using 10 adult hens of two-spotted spider per plot. Corrected mortality(%)=(Number of dead mites in a non-treatment plot−Number of dead mites in a treatment plot)/(Number of dead mites in a non-treatment plot)×100 [Expression 4]

## CCS(=O)(=O)n1c(-n2cnc(C(C)(C)C)c2)nc2ccccc21 [Compound 1-5]
  acaricidal efficacy (corrected mortality rate), activity level: D or higher

## CCS(=O)(=O)n1c(-n2cnc(SC)n2)nc2ccccc21 [Compound 3-4]
  acaricidal efficacy (corrected mortality rate), activity level: D or higher

## CCS(=O)(=O)n1c(-n2cc(C(=O)OC(C)(C)C)c(C#Cc3ccccc3)n2)nc2ccccc21 [Compound 2-88]
  acaricidal efficacy (corrected mortality rate), activity level: D or higher

## CCS(=O)(=O)n1c(-n2cc(/C=C/C(=O)NCC(F)(F)F)c(C(F)(F)F)n2)nc2ccccc21 [Compound 2-117]
  acaricidal efficacy (corrected mortality rate), activity level: D or higher

## CCS(=O)(=O)n1c(-n2cc(C(=O)OC(C)(C)C)c(C(F)(F)C(F)(F)F)n2)nc2ccccc21 [Compound 2-90]
  acaricidal efficacy (corrected mortality rate), activity level: D or higher

## CCS(=O)(=O)n1c(-n2cc(C(=O)OC(C)(C)C)c(OCC(F)(F)C(F)F)n2)nc2ccccc21 [Compound 2-78]
  acaricidal efficacy (corrected mortality rate), activity level: D or higher

## CCS(=O)(=O)n1c(-n2cnc(C(=O)OC(C)(C)c3ccccc3)c2)nc2ccccc21 [Compound 1-36]
  acaricidal efficacy (corrected mortality rate), activity level: D or higher

## CCCCCCCCc1cn(-c2nc3ccccc3n2S(C)(=O)=O)cn1 [Compound 1-3]
  acaricidal efficacy (corrected mortality rate), activity level: D or higher

## CCS(=O)(=O)n1c(-n2cc(/C=C/C(=O)OCC34CC5CC(CC(C5)C3)C4)c(C(F)(F)F)n2)nc2ccccc21 [Compound 2-116]
  acaricidal efficacy (corrected mortality rate), activity level: D or higher

## CCS(=O)(=O)n1c(-n2cc(C(C)=O)c(C)n2)nc2ccccc21 [Compound 2-119]
  acaricidal efficacy (corrected mortality rate), activity level: D or higher

## CCS(=O)(=O)n1c(-n2cc(C(=O)NCC(F)(F)F)c(C(=O)NCC(F)(F)F)n2)nc2ccccc21 [Compound 2-95]
  acaricidal efficacy (corrected mortality rate), activity level: D or higher

## CCS(=O)(=O)n1c(-n2cc(C(=O)N(C)C(C)(C)C)c(C(=O)N(C)C(C)(C)C)n2)nc2ccccc21 [Compound 2-98]
  acaricidal efficacy (corrected mortality rate), activity level: D or higher

## CCS(=O)(=O)n1c(-n2cnc(COc3ccc(C(F)(F)F)cc3)c2)nc2ccccc21 [Compound 1-16]
  acaricidal efficacy (corrected mortality rate), activity level: D or higher

## CCS(=O)(=O)n1c(-n2cc(C(=O)OC(C)(C)C)c(C(C)(C)C)n2)nc2ccccc21 [Compound 2-58]
  acaricidal efficacy (corrected mortality rate), activity level: D or higher

## CCCCCc1cn(-c2nc3ccccc3n2S(=O)(=O)CC)cn1 [Compound 1-2]
  acaricidal efficacy (corrected mortality rate), activity level: D or higher

## CCS(=O)(=O)n1c(-n2cnc(C#N)c2)nc2ccccc21 [Compound 1-31]
  acaricidal efficacy (corrected mortality rate), activity level: D or higher

## CCS(=O)(=O)n1c(-n2cnc(CCc3ccc(C(C)(C)C)cc3)c2)nc2ccccc21 [Compound 1-10]
  acaricidal efficacy (corrected mortality rate), activity level: D or higher

## CCOC(=O)/C=C/c1nn(-c2nc3ccccc3n2S(=O)(=O)CC)cc1C(=O)OCC [Compound 2-143]
  acaricidal efficacy (corrected mortality rate), activity level: D or higher

## CCS(=O)(=O)n1c(-n2cc(CCc3ccc(F)cc3)c(C(F)(F)F)n2)nc2ccccc21 [Compound 2-5]
  acaricidal efficacy (corrected mortality rate), activity level: D or higher

## CCS(=O)(=O)n1c(-n2cnc(CCc3ccc(Br)cc3)c2)nc2ccccc21 [Compound 1-14]
  acaricidal efficacy (corrected mortality rate), activity level: D or higher

## CCS(=O)(=O)n1c(-n2cc(Br)c(OC(F)(F)C(=O)N(C)C)n2)nc2ccccc21 [Compound 2-136]
  acaricidal efficacy (corrected mortality rate), activity level: D or higher

## CCS(=O)(=O)n1c(-n2cc(C(=O)OC(C)(C)C)c(C(=O)OC(C)(C)C)n2)nc2ccccc21 [Compound 2-62]
  acaricidal efficacy (corrected mortality rate), activity level: D or higher

## CCS(=O)(=O)n1c(-n2cc(C#Cc3ccc(F)cc3)c(C(F)(F)F)n2)nc2ccccc21 [Compound 2-9]
  acaricidal efficacy (corrected mortality rate), activity level: D or higher

## CCS(=O)(=O)n1c(-n2cc(CCc3ccccc3)c(OCC(F)(F)F)n2)nc2ccccc21 [Compound 2-101]
  acaricidal efficacy (corrected mortality rate), activity level: D or higher

## CCS(=O)(=O)n1c(-n2cc(C(=O)OC(C)(C)C)c(CCC3CC3)n2)nc2ccccc21 [Compound 2-84]
  acaricidal efficacy (corrected mortality rate), activity level: D or higher

## CCS(=O)(=O)n1c(-n2cnc(I)c2)nc2ccccc21 [Compound 1-20]
  acaricidal efficacy (corrected mortality rate), activity level: D or higher

## CCS(=O)(=O)n1c(-n2cc(CCC(C)(C)C)c(C(F)(F)F)n2)nc2ccccc21 [Compound 2-127]
  acaricidal efficacy (corrected mortality rate), activity level: D or higher

## CCS(=O)(=O)n1c(-n2cc(CCC(C)(C)C)c(C(=O)OC(C)(C)C)n2)nc2ccccc21 [Compound 2-137]
  acaricidal efficacy (corrected mortality rate), activity level: D or higher

## CCS(=O)(=O)n1c(-n2cc(C(=O)c3ccccc3)c(C(F)(F)F)n2)nc2ccccc21 [Compound 2-59]
  acaricidal efficacy (corrected mortality rate), activity level: D or higher

## CCS(=O)(=O)n1c(-n2cc(C(=O)OC(C)(C)C)c(Cl)n2)nc2ccccc21 [Compound 2-47]
  acaricidal efficacy (corrected mortality rate), activity level: D or higher

## CCS(=O)(=O)n1c(-n2nc(C(F)(F)F)c(Br)c2C)nc2ccccc21 [Compound 2-18]
  acaricidal efficacy (corrected mortality rate), activity level: D or higher

## CCS(=O)(=O)n1c(-n2cc(Cc3ccccc3)c(C(F)(F)F)n2)nc2ccccc21 [Compound 2-22]
  acaricidal efficacy (corrected mortality rate), activity level: D or higher

## CCS(=O)(=O)n1c(-n2cc(C#CC3CC3)c(C(F)(F)F)n2)nc2ccccc21 [Compound 2-123]
  acaricidal efficacy (corrected mortality rate), activity level: D or higher

## CCS(=O)(=O)n1c(-n2cc(C(=O)OC(C)(C)C)c(CC(C)C)n2)nc2ccccc21 [Compound 2-87]
  acaricidal efficacy (corrected mortality rate), activity level: D or higher

## CCS(=O)(=O)n1c(-n2cnc(C#CC3CC3)c2)nc2ccccc21 [Compound 1-7]
  acaricidal efficacy (corrected mortality rate), activity level: D or higher

## CCS(=O)(=O)n1c(-n2cc(/C=C/C(=O)OCc3ccc(C(C)(C)C)cc3)c(C(F)(F)F)n2)nc2ccccc21 [Compound 2-114]
  acaricidal efficacy (corrected mortality rate), activity level: D or higher

## CCCCCCC#Cc1cnn(-c2nc3ccccc3n2S(=O)(=O)CC)c1 [Compound 2-7]
  acaricidal efficacy (corrected mortality rate), activity level: D or higher

## CCOC(=O)/C=C/c1ccn(-c2nc3ccccc3n2S(=O)(=O)CC)n1 [Compound 2-36]
  acaricidal efficacy (corrected mortality rate), activity level: D or higher

## CCS(=O)(=O)n1c(-n2cc(CCc3ccc(C(F)(F)F)cc3)cn2)nc2ccccc21 [Compound 2-4]
  acaricidal efficacy (corrected mortality rate), activity level: D or higher

## CCCC#Cc1cn(-c2nc3ccccc3n2S(=O)(=O)CC)nc1C(F)(F)F [Compound 2-122]
  acaricidal efficacy (corrected mortality rate), activity level: D or higher

## CCOC(=O)c1cn(-c2nc3ccccc3n2S(=O)(=O)CC)nc1/C=C/C1CC1 [Compound 2-80]
  acaricidal efficacy (corrected mortality rate), activity level: D or higher

## CCS(=O)(=O)n1c(-n2cc(C#CC(C)(C)OC)c(C(F)(F)F)n2)nc2ccccc21 [Compound 2-129]
  acaricidal efficacy (corrected mortality rate), activity level: D or higher

## CCS(=O)(=O)n1c(-n2cc(C(=O)N(C)OC)c(C(F)(F)F)n2)nc2ccccc21 [Compound 2-30]
  acaricidal efficacy (corrected mortality rate), activity level: D or higher

## CCS(=O)(=O)n1c(-n2cc(C#N)c(C(C)(C)C)n2)nc2ccccc21 [Compound 2-99]
  acaricidal efficacy (corrected mortality rate), activity level: D or higher
